Values of other authors in patent US7850723B1, “Method and apparatus for patient temperature control employing titration of therapy using EEG signals” (Innercool Therapies, Inc., priority 2005, dated 2010).

What was measured:
[1] = in vivo
clots [2] = conditions: clots treated with UK at 4° C. and 28° C.; heating to 28° C.
clots [3] = conditions: clots treated with plasminogen (2 mg) and SK (100 IU) in 15 ml PBS; clot temperature raised from 24° C. to 37° C.

Which “decrease of shivering threshold relative to vasoconstriction threshold” value [1] does the source give for CCOC(=O)C1(c2ccccc2)CCN(C)CC1 [Meperidine] here?
The value was “twice as much”.

Which “fibrinolytic activity (conversion of plasminogen to plasmin)” value (clots [2]) does the source give for urokinase [UK] here?
The value was “complete conversion of all plasminogen to plasmin”.

Which fibrinolytic activity (clots [3]) does the source give for streptokinase [SK] here?
Its fibrinolytic activity is “heating enhanced the fibrinolytic activity”.
